We go through twelve compounds from patent US7078400B2, “20-HETE synthase inhibitor” (Taisho Pharmaceutical Co., Ltd., priority 1999, dated 2006).

pIC50: −log10 of the molar value.

Data set [1] has as its system 20-HETE synthase originated from rat kidney microsome. The data set can be described thus: Inhibitory effect of 20-HETE synthase originated from rat kidney microsome. The data set is classed as biochemical. To be noted: for Inhibition rate (1 μM): 20-HETE production without compound set to 100%. In a few lines:
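Kidney microsomes from 6-week male spontaneously hypertensive rats were used with tritium-arachidonic acid and NADPH. 20-HETE was quantified by radio-HPLC on a C18 column.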

Where [2] appears, read: concentration at which production of 20-HETE was inhibited to 50%.
[3] abbreviates: 1 μM of subject compound, rat kidney microsome.
The mark [4] stands for this setting: concentration at which 20-HETE production was inhibited to 50%, rat kidney microsome.
Setting [5] is: 1 μM of the subject compound added, rat kidney microsome.
Setting [6] is: concentration at which production of 20-HETE was inhibited to 50%, rat kidney microsome.

In general, melting point refers to the temperature of the solid-liquid transition. In general, pIC50 refers to the negative decadic logarithm of the IC50, by convention in mol/L. Low readings indicate a large IC50, high ones a small IC50.

In turn, `O/N=C/Nc1ccc(OCCCCCN2CCCCC2)cc1` [Comp. 431] had a melting point of 113 to 115 °C. For the same compound, the pIC50 in data set [1] (setting [2]) was 7.32.

The compound `C#CCCCOc1ccc(N/C=N/O)cc1` [Comp. 331] returned a melting point of 139 to 139.5 °C. Also, the “Inhibition rate (1 μM)” value in data set [1] (setting [3]) is reported as 118.8. The pIC50 in data set [1] (setting [4]) was 8.49.

The compound `O=C(c1ccccc1)c1ccc(N/C=N/O)cc1` [Comp. 239] gave a melting point of 182.5 to 183 °C. The same compound showed a pIC50 in data set [1] (setting [4]) of 5.39.

Consider `O/N=C/Nc1cccc(Cl)c1` [Comp. 23], for which the melting point fell in the range of 110 to 111.5 °C. In addition, the “Inhibition rate (1 μM)” value in data set [1] (setting [5]) amounted to 82.8. In addition, the pIC50 in data set [1] (setting [6]) was 6.32.

`O/N=C/Nc1ccc(OCCCn2cccc2)cc1` [Comp. 412] yielded a melting point of 130 to 130.5 °C. The “Inhibition rate (1 μM)” value in data set [1] (1 μM of the subject compound) was determined as 119.4. Further, in data set [1] (setting [2]), the pIC50 is 8.82.

As for `Cc1cccc(COc2ccc(N/C=N/O)cc2)c1` [Comp. 391], the melting point was in the range of 161.5 to 162 °C. For the same compound, the “Inhibition rate (1 μM)” value in data set [1] (setting [3]) was determined as 113.4. Besides, the pIC50 in data set [1] (setting [4]) is 8.62.

For the compound `O/N=C/Nc1ccc(Cl)cc1` [Comp. 15], the melting point was in the range of 155.5 to 156 °C. Besides, in data set [1] (setting [5]), the “Inhibition rate (1 μM)” value was found to be 92.9. Moreover, the pIC50 in data set [1] (setting [6]) is 6.54.

On to `CCCc1ccc(N/C=N/O)cc1` [Comp. 31], for which the melting point fell in the range of 131 to 132 °C. For the same compound, the “Inhibition rate (1 μM)” value in data set [1] (setting [5]) is 97.8. Also, in data set [1] (setting [6]), the negative logarithm of the IC50 (pIC50) was 8.18.

Take `CCOC(=O)Cc1ccc(N/C=N/O)cc1` [Comp. 122]: the melting point fell in the range of 106 to 107.5 °C. Moreover, the “Inhibition rate (1 μM)” value in data set [1] (setting [5]) came to 94.7. In data set [1] (setting [6]), the pIC50 is 7.54.

`CCCCCCOc1ccc(N/C=N/O)cc1` [Comp. 320] returned a melting point of 125 to 126 °C. Also, the “Inhibition rate (1 μM)” value in data set [1] (setting [3]) was determined as 92.5. The compound also gave a pIC50 in data set [1] (setting [4]) of 8.89.

Regarding `O/N=C/Nc1cc(C(F)(F)F)cc(C(F)(F)F)c1` [Comp. 49], the melting point lay in the range of 122.5 to 124 °C. For the same compound, the “Inhibition rate (1 μM)” value in data set [1] (setting [5]) was 46.7.

`CN1CCCC(COc2ccc(N/C=N/O)cc2)C1` (stereo not drawn) [Comp. 415] showed a melting point of 114 to 117 °C. The “Inhibition rate (1 μM)” value in data set [1] (1 μM of the subject compound) is on record as 103.7. The pIC50 in data set [1] (setting [2]) was 7.75.
